According to PMC10579241, “Impact of trifluoromethyl and sulfonyl groups on the biological activity of novel aryl-urea derivatives: synthesis, in-vitro, in-silico and SAR studies” (Scientific Reports, 2023):
Converted amounts (≈) assume the structure as drawn. Like-named read-outs stand apart in the source and are kept apart here. Marks after values point to notes of the source that are not given here.

How the values were obtained:
Bacillus mycoides [1] = experiment: microbe, parasite or virus in culture; type: cell-based
Escherichia coli [2] = experiment: Agar well diffusion, E. coli; type: cell-based; settings: Escherichia coli, read-out: Inhibition zones diameter
Candida albicans [3] = experiment: Agar well diffusion, C. albicans; type: cell-based
Bacillus mycoides [4] = experiment: microbe, parasite or virus in culture; type: cell-based; remark: listed apart in the source
Escherichia coli [5] = experiment: MIC by serial dilution (agar wells), E. coli; type: cell-based
Candida albicans [6] = experiment: MIC by serial dilution (agar wells), C. albicans; type: cell-based
[7] = tested on: human lung carcinoma (A549); experiment: cells; type: cell-based
colon cancer (HCT116) = experiment: cells; type: cell-based; settings: Homo sapiens
prostate cancer (PC3) = experiment: cells; type: cell-based; settings: Homo sapiens, 48 h
skin cancer (A431) = experiment: cells; type: cell-based; settings: Homo sapiens, A-431, 100 μg/mL, 48 h
[8] = tested on: hepatocellular carcinoma cell line (HePG2); experiment: cells; type: cell-based; settings: Homo sapiens, 48 h
[9] = tested on: osteosarcoma cell line (HOS); experiment: cells; type: cell-based; settings: Homo sapiens, 48 h, 100 μg/mL
[10] = tested on: pancreatic cancer cell line (PACA2); experiment: cells; type: cell-based; settings: Homo sapiens, PaCa-2, 48 h
in vitro = type: cell-based; settings: human, BJ1 normal skin fibroblast cells, 100 μg/mL
EGFR = experiment: qRT-PCR, EGFR in A549 cells; type: cell-based, human; settings: versus negative samples
KRAS = experiment: qRT-PCR, KRAS in A549 cells; type: cell-based, human; settings: versus negative samples
A549 [11] = experiment: DNA damage, comet assay, A549; type: cell-based, human
A549 [12] = experiment: DNA fragmentation assay, A549; type: cell-based, human
[13] = read-out: Minimum inhibition concentration (MIC)
[14] = 0.00488 mg/mL, 150 µL in DMSO, 15 mm agar well
[15] = 0.00975 mg/mL, 150 µL in DMSO, 15 mm agar well
[16] = 0.0195 mg/mL, 150 µL in DMSO, 15 mm agar well
[17] = 0.0391 mg/mL, 150 µL in DMSO, 15 mm agar well
[18] = 0.0781 mg/mL, 150 µL in DMSO, 15 mm agar well
[19] = 0.1563 mg/mL, 150 µL in DMSO, 15 mm agar well
[20] = 0.3125 mg/mL, 150 µL in DMSO, 15 mm agar well
[21] = 0.625 mg/mL, 150 µL in DMSO, 15 mm agar well
[22] = 1.25 mg/mL, 150 µL in DMSO, 15 mm agar well
[23] = 2.50 mg/mL, 150 µL in DMSO, 15 mm agar well
[24] = 5.00 mg/mL, 150 µL in DMSO, 15 mm agar well
[25] = 10.0 mg/mL, 150 µL in DMSO, 15 mm agar well

Cc1ccc(S(=O)(=O)NC(=O)Nc2ccc(OC(F)(F)F)cc2)cc1 [Compound 8, 4-Methyl-N-[(4-{trifluoromethoxy}phenyl)carbamoyl]benzenesulfonamide]
Inhibition zones diameter (Bacillus mycoides [1]; B. mycoides, 200 μL of 10 mg/mL in DMSO in 15 mm holes, overnight 37 °C): 37 ± 0.23 mm
zone of inhibition at 10000 µg/mL (Bacillus mycoides [1]; Bacillus mycoides, read-out: Inhibition zones diameter): 37 mm
zone of inhibition at 10000 µg/mL (Escherichia coli [2]): 29 ± 0.44 mm
Inhibition zones diameter (Candida albicans [3]; C. albicans, 200 μL of 10 mg/mL in DMSO in 15 mm holes, overnight 37 °C): 38 ± 0.67 mm
zone of inhibition at 10000 µg/mL (Candida albicans [3]; Candida albicans, read-out: Inhibition zones diameter): 38 mm
zone of inhibition at 4.88 µg/mL (Bacillus mycoides [4]; read-out: Inhibition zone): 17 mm
zone of inhibition at 9.75 µg/mL (Bacillus mycoides [4]; read-out: Inhibition zone): 17 mm
zone of inhibition at 19.5 µg/mL (Bacillus mycoides [4]; read-out: Inhibition zone): 17 mm
zone of inhibition at 39.1 µg/mL (Bacillus mycoides [4]; read-out: Inhibition zone): 17 mm
zone of inhibition at 78.1 µg/mL (Bacillus mycoides [4]; read-out: Inhibition zone): 17 mm
zone of inhibition at 156.3 µg/mL (Bacillus mycoides [4]; read-out: Inhibition zone): 17 mm
zone of inhibition at 312.5 µg/mL (Bacillus mycoides [4]; read-out: Inhibition zone): 20 mm
zone of inhibition at 625 µg/mL (Bacillus mycoides [4]; read-out: Inhibition zone): 23 mm
zone of inhibition at 1250 µg/mL (Bacillus mycoides [4]; read-out: Inhibition zone): 26 mm
zone of inhibition at 2500 µg/mL (Bacillus mycoides [4]; read-out: Inhibition zone): 27 mm
zone of inhibition at 5000 µg/mL (Bacillus mycoides [4]; read-out: Inhibition zone): 27 mm
zone of inhibition at 10000 µg/mL (Bacillus mycoides [4]; read-out: Inhibition zone): 32 mm
MIC (Bacillus mycoides [4]; [13]): 4.88 µg/mL (≈ 13 µM)
zone of inhibition at 4.88 µg/mL (Escherichia coli [5]; [14]): 16 mm
zone of inhibition at 9.75 µg/mL (Escherichia coli [5]; [15]): 17 mm
zone of inhibition at 19.5 µg/mL (Escherichia coli [5]; [16]): 17 mm
zone of inhibition at 39.1 µg/mL (Escherichia coli [5]; [17]): 18 mm
zone of inhibition at 78.1 µg/mL (Escherichia coli [5]; [18]): 18 mm
zone of inhibition at 156.3 µg/mL (Escherichia coli [5]; [19]): 19 mm
zone of inhibition at 312.5 µg/mL (Escherichia coli [5]; [20]): 23 mm
zone of inhibition at 625 µg/mL (Escherichia coli [5]; [21]): 25 mm
zone of inhibition at 1250 µg/mL (Escherichia coli [5]; [22]): 27 mm
zone of inhibition at 2500 µg/mL (Escherichia coli [5]; [23]): 28 mm
zone of inhibition at 5000 µg/mL (Escherichia coli [5]; [24]): 29 mm
zone of inhibition at 10000 µg/mL (Escherichia coli [5]; [25]): 32 mm
MIC (Escherichia coli [5]; [13]): 4.88 µg/mL (≈ 13 µM)
zone of inhibition at 4.88 µg/mL (Candida albicans [6]; [14]): 16 mm
zone of inhibition at 9.75 µg/mL (Candida albicans [6]; [15]): 17 mm
zone of inhibition at 19.5 µg/mL (Candida albicans [6]; [16]): 17 mm
zone of inhibition at 39.1 µg/mL (Candida albicans [6]; [17]): 17 mm
zone of inhibition at 78.1 µg/mL (Candida albicans [6]; [18]): 18 mm
zone of inhibition at 156.3 µg/mL (Candida albicans [6]; [19]): 23 mm
zone of inhibition at 312.5 µg/mL (Candida albicans [6]; [20]): 25 mm
zone of inhibition at 625 µg/mL (Candida albicans [6]; [21]): 27 mm
zone of inhibition at 1250 µg/mL (Candida albicans [6]; [22]): 28 mm
zone of inhibition at 2500 µg/mL (Candida albicans [6]; [23]): 30 mm
zone of inhibition at 5000 µg/mL (Candida albicans [6]; [24]): 32 mm
zone of inhibition at 10000 µg/mL (Candida albicans [6]; [25]): 34 mm
MIC (Candida albicans [6]; [13]): 4.88 µg/mL (≈ 13 µM)
mortality at 100 µg/mL ([7]; A549, 48 h, 100 μg/mL): 100%
IC50 ([7]; MTT, 48 h): 55.8 ± 0.11 µM
mortality at 100 µg/mL (colon cancer (HCT116); HCT-116, 48 h, 100 μg/mL): 100%
IC50 (colon cancer (HCT116); HCT-116, MTT, 48 h): 47.3 ± 0.91 µM
mortality at 100 µg/mL (prostate cancer (PC3); 100 μg/mL): 100%
IC50 (prostate cancer (PC3); MTT): 57.2 ± 0.39 µM
mortality at 100 µg/mL (skin cancer (A431)): 27.5 ± 0.64%
mortality at 100 µg/mL ([8]; 100 μg/mL): 100%
IC50 ([8]; MTT): 74 ± 0.29 µM
mortality at 100 µg/mL [9]: > 50%
mortality at 100 µg/mL ([10]; 100 μg/mL): 100%
IC50 ([10]; MTT): 22.4 ± 0.49 µM
mortality at 48 h, 100 µg/mL (in vitro): 6.2 ± 1.54%
EGFR gene expression level (EGFR): significant reduction
KRAS gene expression level (KRAS): significant reduction
DNA damaged cells % (mean ± SEM) (A549 [11]): 24.75 ± 1.03^a %
Class 0 (no tail), number of cells (A549 [11]; of 400 cells analyzed): 301
Class 1 (tail length < diameter of nucleus), number of cells (A549 [11]; of 400 cells analyzed): 39
Class 2 (tail length between 1 and 2 × the diameter of nucleus), number of cells (A549 [11]; of 400 cells analyzed): 38
Class 3 (tail length > 2 × the diameter of nucleus), number of cells (A549 [11]; of 400 cells analyzed): 22
No. of cells, Comets (A549 [11]; of 400 cells analyzed): 99
Change (DNA fragmentation versus untreated cells) (A549 [12]): 22.8
DNA fragmentation % M ± SEM (A549 [12]; IC50 concentration, 24 h): 34.2 ± 0.57^a %
Inhibition (A549 [12]; doxorubicin = 0.0): 16.92
